Results on two molecules are retold here after patent US4720483A, “Oligopeptides and intermediates and processes for their manufacture” (Ciba-Geigy Corporation, priority 1985, dated 1988).

This experiment can be described thus: vasodilatory and cardiovascular actions in femtomol dosages, with and without blockers of the sympathetic nervous system. The conditions noted are these: blocker of the sympathetic nervous system. It is filed as in vivo. The source says: In femtomol dosages, the peptide-amides according to the invention have a vasodilatory action and result in a reduction of the blood pressure and an increase in the heart rate and in the contractility of the myocardium. The actions are not affected by blockers of the sympathetic nervous system, for example metoprolol [1-isopropylamino-3-(4-{2-methoxyethyl}phenoxy)-propan-2-ol] and Trandate® (labetalol hydrochloride), whereas the action of noradrenalin and of adrenalin in serum is suppressed by those substances.

Molecules are shown by their SMILES. Structures can show the parent of a compound that is named as a salt.

As for `CC(CCc1ccccc1)NCC(O)c1ccc(O)c(C(N)=O)c1` (centres unmarked) [Trandate, labetalol hydrochloride], the “action of noradrenalin and of adrenalin in serum” value is on record as “suppressed”. In the case of `COCCc1ccc(OCC(O)CNC(C)C)cc1` (centres unmarked) [metoprolol, 1-isopropylamino-3-(4-{2-methoxyethyl}phenoxy)-propan-2-ol], the “action of noradrenalin and of adrenalin in serum” value is recorded as “suppressed”.
